# Results taken from patent publication US5340925A, “Normal human growth regulatory receptor for TGF-β” (Oncogen, priority 1992, dated 1994).
# Like-named read-outs stand apart in the source and are kept apart here.
# Tests used:
# HEPM cells [1] = assay: Co-stimulation with EGF assay (radionuclide incorporation into DNA); format: cell-based, human
# Experimental: Quiescent HEPM cells were stimulated to proliferate by the addition of fetal bovine serum (15 μ) and test samples of TGF-β2 (50 μl) and/or EGF (50 μl), resulting in a total assay volume of 165 μl. The amount of cell growth was measured by the amount of radionuclide incorporated into the DNA of actively growing cells.
# The response of HEPM cells to TGF-β treatment in the presence of EGF was determined by radiolabeling the DNA of dividing cells as described in Materials and Methods. A suboptimal dose of TGF-β2 was analyzed for growth stimulatory activity in the presence of EGF. […] HEPM cells treated with both EGF and TGF-β2 at the same doses gave a 511% stimulation, a potentiated response of 340% over that expected from the sum of the two individual responses.
# [2] = target: T1, HEPM cell-surface receptors for TGF-β (Homo sapiens, UniProt Q03167); assay: Radioreceptor assay: [125I]-iodo-TGF-β1 in competition with unlabeled TGF-β1, Scatchard analysis; format: binding; details: untreated HEPM cells, Scatchard two-site model
# T1 construct: endogenous in cells; host or cells: HEPM (human embryonic palatal mesenchyme) cells, intact monolayers
# T1 sequence (Q03167 21-851): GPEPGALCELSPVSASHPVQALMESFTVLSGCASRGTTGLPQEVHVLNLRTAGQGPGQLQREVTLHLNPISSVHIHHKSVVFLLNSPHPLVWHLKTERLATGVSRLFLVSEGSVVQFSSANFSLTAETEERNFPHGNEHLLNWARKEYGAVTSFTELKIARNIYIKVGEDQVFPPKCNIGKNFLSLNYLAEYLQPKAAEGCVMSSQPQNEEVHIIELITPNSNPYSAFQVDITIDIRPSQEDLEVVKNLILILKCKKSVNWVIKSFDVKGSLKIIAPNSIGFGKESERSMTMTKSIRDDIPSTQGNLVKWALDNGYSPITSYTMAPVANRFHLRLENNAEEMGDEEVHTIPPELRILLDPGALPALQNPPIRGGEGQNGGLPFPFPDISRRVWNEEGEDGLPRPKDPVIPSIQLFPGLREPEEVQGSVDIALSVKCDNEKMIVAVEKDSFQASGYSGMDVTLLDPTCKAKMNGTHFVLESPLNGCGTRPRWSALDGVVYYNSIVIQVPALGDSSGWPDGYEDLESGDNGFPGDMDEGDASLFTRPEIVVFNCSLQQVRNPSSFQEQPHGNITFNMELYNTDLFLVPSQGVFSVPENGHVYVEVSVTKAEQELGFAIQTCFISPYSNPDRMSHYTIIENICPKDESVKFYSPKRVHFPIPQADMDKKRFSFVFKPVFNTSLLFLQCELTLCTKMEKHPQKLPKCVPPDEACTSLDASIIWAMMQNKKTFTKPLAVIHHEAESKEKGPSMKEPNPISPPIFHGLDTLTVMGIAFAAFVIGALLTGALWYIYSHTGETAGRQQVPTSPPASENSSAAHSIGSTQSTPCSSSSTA
# Experimental: (§1) HEPM cells were grown to confluence (1×10^5 cells/well) in 24-well Costar tissue culture plates. Prior to the binding assay, cells were pre-incubated in serum-free growth medium at 37° C. for 4 hours to allow for the dissociation of TGF-β from occupied cells surface receptors. The resulting monolayers were washed 2 times in binding buffer (Dulbecco's MEM+0.1% BSA+25 mM HEPES). 250 μl of binding buffer containing 0.5 μg/ml [^125 I]-iodoTGF-β1, (specific activity of 100 μCi/μg) together with increasing amounts of unlabeled TGF-β1 were added to duplicate wells. Steady state binding was carried out at 4° C. for 3 hours. After incubation cells were washed 3 times with cold binding buffer and solubilized in 200 μl of Triton solution (20 mM HEPES, 1% Triton X-100, 10% glycerol, 0.01% BSA, pH 7.4). Radioactivity was determined using a gamma spectrometer. Non-specific binding was determined in the presence of a 1,000-fold molar excess unlabeled TGF-β1.
# (§2) The radioreceptor assay described in Materials and Methods was used to characterize the affinity and number of cell-surface receptors for TGF-β on HEPM cells. Specific binding of [^125 I]-iodo-TGF-βin these assays was 20% of the total radioligand present. […] Half-maximal displacement of radioligand occurred at 100 pM (2.6 ng/ml) unlabeled TGF-β1. Competitive binding data were plotted according to the method of Scatchard (Scatchard, et al., 1947, Ann. NY Acad Sci 51:660-672) and the results are presented in FIG. 5. A distinctly curvilinear isotherm was obtained indicating the presence of at least two classes of binding sites on HEPM cells. […] Quantitative analysis determined that HEPM cells contain a total of 287,000 TGF-β receptors per cell (55,400 high affinity and 231,600 low affinity sites).
# [3] = system: HEPM cell-surface receptors for TGF-β; assay: as above; format: binding, human; details: comparison of growth stimulation and receptor binding, FIG. 6
# Experimental: as §1, §2
# HEPM cells [4] = assay: Growth stimulation assay: incorporation of 5-[125I]iodo-2'-deoxyuridine into DNA of quiescent HEPM cells; format: cell-based, human; details: 66 h + 6 h radionuclide label
# Experimental: FIGS. 1(A) and 1(B) Bioactivity of TGF-β on HEPM cells: incorporation of radionuclide into DNA. Results are presented as percent stimulation vs the picomolar (pM) concentration of TGF-β. Percent stimulation was calculated as follows: treated (cpm)-untreated (cpm)/untreated (cpm) x 100. Panel A: TGF-β1, treatment. Panel B: TGF-β2 treatment.
# HEPM cells (5,000 cells/50 μl ) were subcultured in 96-well tissue culture plates (Falcon 30072) in growth medium comprising minimal essential medium (Gibco, Grand Island, N.Y.) supplemented with 10% heat-inactivated fetal bovine serum, 600 μg/ml L-glutamine, 500 μg/ml penicillin and 500 μg/ml streptomycin for a 24-hour period at 37° C. in a humidified 5% CO2 /95% air atosphere. A nondividing, quiescent state of growth was achieved by subsequent incubation for 48 hours in growth medium supplemented with 0.5% fetal bovine serum. Quiescent cells were then stimulated to proliferate by the addition of fetal bovine serum (10 μl ) and test samples of TGF-β1, or TGF-β2 (50 μl). The cells were incubated an additional 66 hours at 37° C. […] The amount of cell growth was measured by the amount of radionuclide incorporated into the DNA of actively growing cells.
# TGF-β = target: T2, TGF-β (Homo sapiens, UniProt P01137); assay: Affinity labeling of purified soluble receptor with [125I]-iodo-TGF-β, DSS cross-linking, SDS-PAGE; format: binding; details: [125I]-iodo-TGF-β with or without 1,000 ng/ml unlabeled TGF-β
# T2 construct: endogenous in cells; host or cells: HEPM cells
# Experimental: FIG. 10 Ability of purified TGF-β receptor to bind TGF-β. Affinity purified receptor preparations were crosslinked to bound [^125 I]-iodo-TGF-β with DSS and analyzed on SDS-PAGE. Lanes marked (-) contained only [^125 I]-iodo-TGF-β; lanes marked (+) contained [^125 I]-iodo-TGF-β in the presence of 1,000 ng/ml unlabeled TGF-β. The 240 Kd band is specifically labeled with radioligand and has the same mobility on SDS-PAGE as the receptor-TGF-β complex from cell surface membranes (see FIG. 7).
# Solubilized receptor samples (50 μl) were diluted with three volumes of binding buffer containing 0.5% v/v Triton X-100 and 50 ng/ml [^125 I]-iodo-TGF-β. The samples were incubated at 4° C. for 3 hours in the presence or absence of 1,000 ng/ml unlabeled TGF-β. Four microliters (4 μl) of 10 mM DSS in DMSO were then added. After 15 minutes the unreacted DSS was quenched by adding 20 μl of 100 mM Tris/HCl pH 7.0.
# Affinity-labeled samples were incubated at 4° C. for 2 hours with 15 μl of packed WGA-sepharose beads (wheat germ aglutinin-sepharose, Sigma) with end-over-end mixing. The beads were sedimented by centrifugation at 12,000 xg for 1 minute and washed three times with a buffer solution containing 0.5% v/v Triton X-100, 10 mM Tris/HCl, mM EDTA. The washed, packed beads were heated for 5 minutes at 95° C. in the presence of 20 μl of electrophoresis sample buffer containing 5% 2-mercaptoethanol. […]
# T2 sequence (P01137 279-390): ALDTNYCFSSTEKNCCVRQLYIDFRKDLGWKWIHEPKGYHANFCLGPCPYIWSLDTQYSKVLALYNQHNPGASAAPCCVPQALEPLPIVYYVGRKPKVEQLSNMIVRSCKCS
molecule,measurement,setting,value
EGF: epidermal growth factor [reference compound],percent stimulation,HEPM cells [1]; 13 ng/ml EGF alone,21%
"TGF-β: Transforming growth factor-Beta, type not named at the place; the underlying radioreceptor and FIG. 6 data were obtained with TGF-β1",Kd,"[2]; read-out: kd, high-affinity (low capacity) site",0.058 nM
same,Kd,"[2]; read-out: kd, low-affinity (high capacity) site",0.898 nM
same,concentration to occupy all TGF-β receptor sites relative to concentration for maximal growth stimulatory response,[3],about 20 times
"TGF-β2: polypeptide of molecular weight 26,000 composed of two identical 13,000 dalton subunits which are disulfide linked",percent stimulation,HEPM cells [1]; 0.3 ng/ml TGF-β2 alone (suboptimal dose),150%
same,ED50 in stimulating the proliferation of HEPM cells (half-maximal growth stimulation),HEPM cells [4],0.0023 nM
"affinity purified receptor: type III TGF-β receptor affinity purified from HEPM cells, about 200-206 kd, N-terminus Lys-Tyr-Tyr-Asp-Lys-Asp-Tyr (protein, UniProt Q03167 21-851, looked up) Transforming growth factor …: GPEPGALCELSPVSASHPVQALMESFTVLSGCASRGTTGLPQEVHVLNLRTAGQGPGQLQREVTLHLNPISSVHIHHKSVVFLLNSPHPLVWHLKTERLATGVSRLFLVSEGSVVQFSSANFSLTAETEERNFPHGNEHLLNWARKEYGAVTSFTELKIARNIYIKVGEDQVFPPKCNIGKNFLSLNYLAEYLQPKAAEGCVMSSQPQNEEVHIIELITPNSNPYSAFQVDITIDIRPSQEDLEVVKNLILILKCKKSVNWVIKSFDVKGSLKIIAPNSIGFGKESERSMTMTKSIRDDIPSTQGNLVKWALDNGYSPITSYTMAPVANRFHLRLENNAEEMGDEEVHTIPPELRILLDPGALPALQNPPIRGGEGQNGGLPFPFPDISRRVWNEEGEDGLPRPKDPVIPSIQLFPGLREPEEVQGSVDIALSVKCDNEKMIVAVEKDSFQASGYSGMDVTLLDPTCKAKMNGTHFVLESPLNGCGTRPRWSALDGVVYYNSIVIQVPALGDSSGWPDGYEDLESGDNGFPGDMDEGDASLFTRPEIVVFNCSLQQVRNPSSFQEQPHGNITFNMELYNTDLFLVPSQGVFSVPENGHVYVEVSVTKAEQELGFAIQTCFISPYSNPDRMSHYTIIENICPKDESVKFYSPKRVHFPIPQADMDKKRFSFVFKPVFNTSLLFLQCELTLCTKMEKHPQKLPKCVPPDEACTSLDASIIWAMMQNKKTFTKPLAVIHHEAESKEKGPSMKEPNPISPPIFHGLDTLTVMGIAFAAFVIGALLTGALWYIYSHTGETAGRQQVPTSPPASENSSAAHSIGSTQSTPCSSSSTA",ability of purified receptor to bind TGF-β,TGF-β,specifically bind TGF-β
